From ChEMBL document CHEMBL1147327, “Developments in marine natural products. Receptor-specific bioactive compounds” (1993)
The source made the active and inactive calls. No cut-off for these calls is given here.

Assays:
[1] = test system: Candida albicans; experiment: Antifungal activity against Candida albicans at 0.5 ug/disk by agar disk diffusion assay; format: functional; settings: read-out: IZ
[2] = test system: Candida albicans; experiment: Antifungal activity against Candida albicans in presence of 100 ppm exogenous ergosterol by agar disk diffusion assay; format: functional, organism-based
[3] = test system: Candida albicans; experiment: Antifungal activity against Candida albicans by agar disk diffusion assay; format: functional, organism-based
[4] = test system: Candida albicans; experiment: Antifungal activity against Candida albicans at 10 ug in presence of 20 ppm exogenous ergosterol; format: functional

| SMILES | zone of inhibition at 0.5 µg/disc [1] [mm] | other results |
| --- | --- | --- |
| CCC(C)CCCCCCCCCCC(=O)O[C@@H](c1cnco1)c1nc([C@H](O)C[C@@H](O)[C@@H](O)[C@@H](C)O)co1 (stereo partly specified) [BENGAZOLE B1] | 9 | – |
| CCCCCCCCCCCCCCCC(=O)O[C@@H](c1cnco1)c1nc([C@@H](O)C[C@@H](O)[C@@H](O)[C@@H](C)O)co1 [BENGAZOLE G] | 9 | – |
| CC1=C[C@@H]2C[C@@H](C)[C@]3(C)C[C@@H]([C@@]4(C)CC[C@@H]([C@@H](C)C(=O)O)OO4)O[C@]3(C)[C@@H]2CC1 | – | Activity [2]: Active |
| COC(=O)[C@H](C)[C@@H]1CC[C@](C)([C@@H]2C[C@@]3(C)[C@H](C)C[C@H]4C=C(C)CC[C@H]4[C@@]3(C)O2)OO1 | – | Activity [3]: inactive |
| CCCCCCCCCCCCCCC(=O)O[C@@H](c1cnco1)c1nc([C@@H](O)C[C@@H](O)[C@@H](O)[C@@H](C)O)co1 [BENGAZOLE E] | 9 | – |
| CCCCCCCCCCCCCC(=O)O[C@@H](c1cnco1)c1nc([C@@H](O)C[C@@H](O)[C@@H](O)[C@@H](C)O)co1 [BENGAZOLE A] | 9 | – |
| CC(C)CCCCCCCCCCC(=O)O[C@@H](c1cnco1)c1nc([C@@H](O)C[C@@H](O)[C@@H](O)[C@@H](C)O)co1 [BENGAZOLE D] | 9 | – |
| CCC(C)CCCCCCCCCCCC(=O)O[C@@H](c1cnco1)c1nc([C@@H](O)C[C@@H](O)[C@@H](O)[C@@H](C)O)co1 (stereo partly specified) [BENGAZOLE F] | 9 | – |
| CC(C)CCCCCCCCCCCC(=O)O[C@@H](c1cnco1)c1nc([C@@H](O)C[C@@H](O)[C@@H](O)[C@@H](C)O)co1 [BENGAZOLE B] | 9 | Activity [4]: 50% |
| CCCCCCCCCCCCC(=O)O[C@@H](c1cnco1)c1nc([C@@H](O)C[C@@H](O)[C@@H](O)[C@@H](C)O)co1 [BENGAZOLE C] | 9 | – |
